# Measured values taken from US5288720A, “Angiotensin II receptor blocking 2,3,6 substituted quinazolinones” (American Cyanamid Company, priority 1993, dated 1994).
# Tested on: ANGIOTENSIN II VASOPRESSOR RESPONSE
# Test: AII Challenge: blockade of angiotensin II vasopressor response in conscious SHR
# Assay type: in vivo, rat (Conscious Male Okamoto-Aoki SHR)
# Conditions: SHR n=2
# Summary of the method: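 Percent blockade is derived from the systolic pressure rise in mmHg, taking each rat's own predose response as 100%. Rats were conscious male Okamoto-Aoki SHR, 16-20 weeks, ~330 g, with aortic and caval cannulas under local procaine. Compound went i.v., i.p. or orally, then angiotensin II challenges (0.05 and 0.1 ug/kg i.v.) at 30-300 min.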
# [1] = 3 mg/kg i.v., AII 0.05 mcg/kg IV, 30 min post dose
# [2] = 3 mg/kg i.v., AII 0.05 mcg/kg IV, 60 min post dose
# [3] = 3 mg/kg i.v., AII 0.05 mcg/kg IV, 90 min post dose
# [4] = 3 mg/kg i.v., AII 0.05 mcg/kg IV, 120 min post dose
# [5] = 3 mg/kg i.v., AII 0.05 mcg/kg IV, 180 min post dose
# [6] = 3 mg/kg i.v., AII 0.05 mcg/kg IV, 240 min post dose
# [7] = 3 mg/kg i.v., AII 0.05 mcg/kg IV, 300 min post dose
# [8] = 3 mg/kg i.v., AII 0.1 mcg/kg IV, 30 min post dose
# [9] = 3 mg/kg i.v., AII 0.1 mcg/kg IV, 60 min post dose
# [10] = 3 mg/kg i.v., AII 0.1 mcg/kg IV, 90 min post dose
# [11] = 3 mg/kg i.v., AII 0.1 mcg/kg IV, 120 min post dose
# [12] = 3 mg/kg i.v., AII 0.1 mcg/kg IV, 180 min post dose
# [13] = 3 mg/kg i.v., AII 0.1 mcg/kg IV, 240 min post dose
# [14] = 3 mg/kg i.v., AII 0.1 mcg/kg IV, 300 min post dose
# [15] = 3 mg/kg p.o., AII 0.05 mcg/kg IV, 30 min post dose
# [16] = 3 mg/kg p.o., AII 0.05 mcg/kg IV, 60 min post dose
# [17] = 3 mg/kg p.o., AII 0.05 mcg/kg IV, 90 min post dose
# [18] = 3 mg/kg p.o., AII 0.05 mcg/kg IV, 120 min post dose
# [19] = 3 mg/kg p.o., AII 0.05 mcg/kg IV, 180 min post dose
# [20] = 3 mg/kg p.o., AII 0.05 mcg/kg IV, 240 min post dose
# [21] = 3 mg/kg p.o., AII 0.1 mcg/kg IV, 30 min post dose
# [22] = 3 mg/kg p.o., AII 0.1 mcg/kg IV, 60 min post dose
# [23] = 3 mg/kg p.o., AII 0.1 mcg/kg IV, 90 min post dose
# [24] = 3 mg/kg p.o., AII 0.1 mcg/kg IV, 120 min post dose
# [25] = 3 mg/kg p.o., AII 0.1 mcg/kg IV, 180 min post dose
# [26] = 3 mg/kg p.o., AII 0.1 mcg/kg IV, 240 min post dose
# [27] = 3 mg/kg p.o., AII 0.05 mcg/kg IV, 300 min post dose
# [28] = 3 mg/kg p.o., AII 0.1 mcg/kg IV, 300 min post dose
# [29] = 10 mg/kg i.v., AII 0.05 mcg/kg IV, 30 min post dose
# [30] = 10 mg/kg i.v., AII 0.05 mcg/kg IV, 60 min post dose
# [31] = 10 mg/kg i.v., AII 0.05 mcg/kg IV, 90 min post dose
# [32] = 10 mg/kg i.v., AII 0.05 mcg/kg IV, 120 min post dose
# [33] = 10 mg/kg i.v., AII 0.05 mcg/kg IV, 180 min post dose
# [34] = 10 mg/kg i.v., AII 0.05 mcg/kg IV, 240 min post dose
# [35] = 10 mg/kg i.v., AII 0.05 mcg/kg IV, 300 min post dose
# [36] = 10 mg/kg i.v., AII 0.1 mcg/kg IV, 30 min post dose
# [37] = 10 mg/kg i.v., AII 0.1 mcg/kg IV, 60 min post dose
# [38] = 10 mg/kg i.v., AII 0.1 mcg/kg IV, 90 min post dose
# [39] = 10 mg/kg i.v., AII 0.1 mcg/kg IV, 120 min post dose
# [40] = 10 mg/kg i.v., AII 0.1 mcg/kg IV, 180 min post dose
# [41] = 10 mg/kg i.v., AII 0.1 mcg/kg IV, 240 min post dose
# [42] = 10 mg/kg i.v., AII 0.1 mcg/kg IV, 300 min post dose
structure (smiles),measurement,setting,value
"CCCCc1nc2ccc(C(O)C3CCN(C)C3=O)cc2c(=O)n1Cc1ccc(-c2ccccc2-c2nn[nH]n2)cc1 (single isomer, unassigned; isomer 1) [Example 32, 2-Butyl-6-[hydroxy(1-methyl-2-oxo-3-pyrrolidinyl)methyl]-3-[[2'-(1e,uns/H/ -tetrazol-5-yl)[1,1'-biphenyl]-4-yl]methyl]-4(3H)-quinazolinone isomer 1]",% Inhibition of AII vasopressor response,[1],100%
same,Average Change (systolic blood pressure response to AII),[1],0 mmHg
same,% Inhibition of AII vasopressor response,[2],89%
same,Average Change (systolic blood pressure response to AII),[2],2.5 mmHg
same,% Inhibition of AII vasopressor response,[3],89%
same,Average Change (systolic blood pressure response to AII),[3],2.5 mmHg
same,% Inhibition of AII vasopressor response,[4],89%
same,Average Change (systolic blood pressure response to AII),[4],2.5 mmHg
same,% Inhibition of AII vasopressor response,[5],68%
same,Average Change (systolic blood pressure response to AII),[5],7.5 mmHg
same,% Inhibition of AII vasopressor response,[6],26%
same,Average Change (systolic blood pressure response to AII),[6],17.5 mmHg
same,% Inhibition of AII vasopressor response,[7],-13%
same,Average Change (systolic blood pressure response to AII),[7],26.5 mmHg
same,% Inhibition of AII vasopressor response,[8],100%
same,Average Change (systolic blood pressure response to AII),[8],0 mmHg
same,% Inhibition of AII vasopressor response,[9],96%
same,Average Change (systolic blood pressure response to AII),[9],1.5 mmHg
same,% Inhibition of AII vasopressor response,[10],88%
same,Average Change (systolic blood pressure response to AII),[10],5 mmHg
same,% Inhibition of AII vasopressor response,[11],94%
same,Average Change (systolic blood pressure response to AII),[11],2.5 mmHg
same,% Inhibition of AII vasopressor response,[12],53%
same,Average Change (systolic blood pressure response to AII),[12],20 mmHg
same,% Inhibition of AII vasopressor response,[13],24%
same,Average Change (systolic blood pressure response to AII),[13],32.5 mmHg
same,% Inhibition of AII vasopressor response,[14],0%
same,Average Change (systolic blood pressure response to AII),[14],42.5 mmHg
same,% Inhibition of AII vasopressor response,[15],0%
same,Average Change (systolic blood pressure response to AII),[15],32.5 mmHg
same,% Inhibition of AII vasopressor response,[16],46%
same,Average Change (systolic blood pressure response to AII),[16],17.5 mmHg
same,% Inhibition of AII vasopressor response,[17],62%
same,Average Change (systolic blood pressure response to AII),[17],12.5 mmHg
same,% Inhibition of AII vasopressor response,[18],46%
same,Average Change (systolic blood pressure response to AII),[18],17.5 mmHg
same,% Inhibition of AII vasopressor response,[19],11%
same,Average Change (systolic blood pressure response to AII),[19],29 mmHg
same,% Inhibition of AII vasopressor response,[20],31%
same,Average Change (systolic blood pressure response to AII),[20],22.5 mmHg
same,% Inhibition of AII vasopressor response,[21],27%
same,Average Change (systolic blood pressure response to AII),[21],27.5 mmHg
same,% Inhibition of AII vasopressor response,[22],27%
same,Average Change (systolic blood pressure response to AII),[22],27.5 mmHg
same,% Inhibition of AII vasopressor response,[23],40%
same,Average Change (systolic blood pressure response to AII),[23],22.5 mmHg
same,% Inhibition of AII vasopressor response,[24],28%
same,Average Change (systolic blood pressure response to AII),[24],27 mmHg
same,% Inhibition of AII vasopressor response,[25],13%
same,Average Change (systolic blood pressure response to AII),[25],32.5 mmHg
same,% Inhibition of AII vasopressor response,[26],23%
same,Average Change (systolic blood pressure response to AII),[26],29 mmHg
"CCCCc1nc2ccc(C(OC)C3CCCN(C)C3=O)cc2c(=O)n1Cc1ccc(-c2ccccc2-c2nn[nH]n2)cc1 (single isomer, unassigned; isomer 2) [Example 43, 2-Butyl-6-[methoxy(1-methyl-2-oxo-3-piperidinyl)methyl]-3-[[2'-(1H-tetrazol-5-yl)[1,1'-biphenyl]-4-yl]methyl]-4(3H)-quinazoline isomer 2]",% Inhibition of AII vasopressor response,[15],24%
same,Average Change (systolic blood pressure response to AII),[15],32.5 mmHg
same,% Inhibition of AII vasopressor response,[16],47%
same,Average Change (systolic blood pressure response to AII),[16],22.5 mmHg
same,% Inhibition of AII vasopressor response,[17],53%
same,Average Change (systolic blood pressure response to AII),[17],20 mmHg
same,% Inhibition of AII vasopressor response,[18],53%
same,Average Change (systolic blood pressure response to AII),[18],20 mmHg
same,% Inhibition of AII vasopressor response,[19],59%
same,Average Change (systolic blood pressure response to AII),[19],17.5 mmHg
same,% Inhibition of AII vasopressor response,[20],35%
same,Average Change (systolic blood pressure response to AII),[20],27.5 mmHg
same,% Inhibition of AII vasopressor response,[27],6%
same,Average Change (systolic blood pressure response to AII),[27],40 mmHg
same,% Inhibition of AII vasopressor response,[21],19%
same,Average Change (systolic blood pressure response to AII),[21],32.5 mmHg
same,% Inhibition of AII vasopressor response,[22],19%
same,Average Change (systolic blood pressure response to AII),[22],32.5 mmHg
same,% Inhibition of AII vasopressor response,[23],56%
same,Average Change (systolic blood pressure response to AII),[23],17.5 mmHg
same,% Inhibition of AII vasopressor response,[24],44%
same,Average Change (systolic blood pressure response to AII),[24],22.5 mmHg
same,% Inhibition of AII vasopressor response,[25],6%
same,Average Change (systolic blood pressure response to AII),[25],37.5 mmHg
same,% Inhibition of AII vasopressor response,[26],13%
same,Average Change (systolic blood pressure response to AII),[26],35 mmHg
same,% Inhibition of AII vasopressor response,[28],8%
same,Average Change (systolic blood pressure response to AII),[28],37 mmHg
same,% Inhibition of AII vasopressor response,[29],100%
same,Average Change (systolic blood pressure response to AII),[29],0 mmHg
same,% Inhibition of AII vasopressor response,[30],77%
same,Average Change (systolic blood pressure response to AII),[30],7.5 mmHg
same,% Inhibition of AII vasopressor response,[31],69%
same,Average Change (systolic blood pressure response to AII),[31],10 mmHg
same,% Inhibition of AII vasopressor response,[32],69%
same,Average Change (systolic blood pressure response to AII),[32],10 mmHg
same,% Inhibition of AII vasopressor response,[33],58%
same,Average Change (systolic blood pressure response to AII),[33],13.5 mmHg
same,% Inhibition of AII vasopressor response,[34],0%
same,Average Change (systolic blood pressure response to AII),[34],32.5 mmHg
same,% Inhibition of AII vasopressor response,[35],8%
same,Average Change (systolic blood pressure response to AII),[35],30 mmHg
same,% Inhibition of AII vasopressor response,[36],92%
same,Average Change (systolic blood pressure response to AII),[36],2.5 mmHg
same,% Inhibition of AII vasopressor response,[37],84%
same,Average Change (systolic blood pressure response to AII),[37],5 mmHg
same,% Inhibition of AII vasopressor response,[38],84%
same,Average Change (systolic blood pressure response to AII),[38],5 mmHg
same,% Inhibition of AII vasopressor response,[39],68%
same,Average Change (systolic blood pressure response to AII),[39],10 mmHg
same,% Inhibition of AII vasopressor response,[40],44%
same,Average Change (systolic blood pressure response to AII),[40],17.5 mmHg
same,% Inhibition of AII vasopressor response,[41],56%
same,Average Change (systolic blood pressure response to AII),[41],13.5 mmHg
same,% Inhibition of AII vasopressor response,[42],19%
same,Average Change (systolic blood pressure response to AII),[42],25 mmHg
